# From PubChem BioAssay AID2060900 (Molecular Pharmacology Branch, DTP, NCI, 2025)
# Tested on: 521955-158-R2-J5-PDC complex spheroids, viability
# Assay: Anticancer human tumor 521955-158-R2-J5-PDC patient-derived pancreatic carcinoma cell line growth inhibition [RAS]
# Details: for IC50: curve of first compound; for viability, T/C: stronger effect = lower value
# In short: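 Multi-cell-type spheroids: tumor cells plus HUVEC endothelial cells and mesenchymal stem cells. RAS-pathway inhibitors were combined with targeted agents, each dosed in half-log steps down from clinical Cmax, or from 10 microM when Cmax was unknown.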
# [1] = second compound 0.00316 µM, first compound 0.0316 µM
# [2] = second compound 0.00316 µM, first compound 0.1 µM
# [3] = second compound 0.00316 µM, first compound 0.316 µM
# [4] = second compound 0.00316 µM, first compound 1 µM
# [5] = second compound 0.01 µM, first compound 0.0316 µM
# [6] = second compound 0.01 µM, first compound 0.1 µM
# [7] = second compound 0.01 µM, first compound 0.316 µM
# [8] = second compound 0.01 µM, first compound 1 µM
# [9] = second compound 0.0316 µM, first compound 0.0316 µM
# [10] = second compound 0.0316 µM, first compound 0.1 µM
# [11] = second compound 0.0316 µM, first compound 0.316 µM
# [12] = second compound 0.0316 µM, first compound 1 µM
# [13] = second compound 0.1 µM, first compound 0.0316 µM
# [14] = second compound 0.1 µM, first compound 0.1 µM
# [15] = second compound 0.1 µM, first compound 0.316 µM
# [16] = second compound 0.1 µM, first compound 1 µM
# [17] = second compound 0.316 µM, first compound 0.0316 µM
# [18] = second compound 0.316 µM, first compound 0.1 µM
# [19] = second compound 0.316 µM, first compound 0.316 µM
# [20] = second compound 0.316 µM, first compound 1 µM
# [21] = second compound 1 µM, first compound 0.0316 µM
# [22] = second compound 1 µM, first compound 0.1 µM
# [23] = second compound 1 µM, first compound 0.316 µM
# [24] = second compound 1 µM, first compound 1 µM
# 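Also: compound exposure lasted seven days before the viability read.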
# 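For viability, T/C in this document: spheroids also contain HUVEC endothelial cells and mesenchymal stem cells as stroma.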
compound,measurement,setting,value
C=CC(=O)Nc1cc(Nc2nccc(-c3cn(C)c4ccccc34)n2)c(OC)cc1N(C)CCN(C)C + C=CC(=O)N1CCN(c2nc(OCC3CCCN3C)nc3c(F)c(-c4nc(N)cc(C)c4C(F)(F)F)c(Cl)cc23)C(C)C1,IC50,second compound 0.00316 µM,970 nM
same,IC50,second compound 0.01 µM,898 nM
same,IC50,second compound 0.0316 µM,> 1000 nM
same,IC50,second compound 0.1 µM,757 nM
same,IC50,second compound 0.316 µM,636 nM
same,IC50,second compound 1 µM,757 nM
same,"viability, T/C","second compound 0.00316 µM, first compound 0.00316 µM",106%
same,"viability, T/C","second compound 0.00316 µM, first compound 0.01 µM",78.6%
same,"viability, T/C",[1],90.5%
same,"viability, T/C",[2],81.2%
same,"viability, T/C",[3],86.4%
same,"viability, T/C",[4],48.9%
same,"viability, T/C","second compound 0.01 µM, first compound 0.00316 µM",87.8%
same,"viability, T/C","second compound 0.01 µM, first compound 0.01 µM",63.4%
same,"viability, T/C",[5],77.8%
same,"viability, T/C",[6],108%
same,"viability, T/C",[7],74.1%
same,"viability, T/C",[8],47.5%
same,"viability, T/C","second compound 0.0316 µM, first compound 0.00316 µM",80.1%
same,"viability, T/C","second compound 0.0316 µM, first compound 0.01 µM",63.5%
same,"viability, T/C",[9],96.5%
same,"viability, T/C",[10],107%
same,"viability, T/C",[11],68.1%
same,"viability, T/C",[12],50.4%
same,"viability, T/C","second compound 0.1 µM, first compound 0.00316 µM",68.1%
same,"viability, T/C","second compound 0.1 µM, first compound 0.01 µM",81.4%
same,"viability, T/C",[13],74.8%
same,"viability, T/C",[14],85.3%
same,"viability, T/C",[15],73.6%
same,"viability, T/C",[16],42.2%
same,"viability, T/C","second compound 0.316 µM, first compound 0.00316 µM",121%
same,"viability, T/C","second compound 0.316 µM, first compound 0.01 µM",82.2%
same,"viability, T/C",[17],95.9%
same,"viability, T/C",[18],70.1%
same,"viability, T/C",[19],67.8%
same,"viability, T/C",[20],39%
same,"viability, T/C","second compound 1 µM, first compound 0.00316 µM",106%
same,"viability, T/C","second compound 1 µM, first compound 0.01 µM",72.8%
same,"viability, T/C",[21],78.7%
same,"viability, T/C",[22],73.9%
same,"viability, T/C",[23],64%
same,"viability, T/C",[24],42.1%
CC1(C)CCC(Nc2ncc(C(F)(F)F)c(-c3c[nH]c4c(P(C)(C)=O)c(C#N)ccc34)n2)CN1 (stereo unspecified) + CCn1c(-c2cccnc2C(C)OC)c2c3cc(ccc31)N1CCOC(CC(NC(=O)C(C(C)C)N(C)C(=O)C3(F)CCN(C(=O)C#CC(C)(C)N(C)C)CC3)C(=O)N3CCCC(N3)C(=O)OCC(C)(C)C2)C1,IC50,second compound 0.000949 µM,7.81 nM
same,IC50,second compound 0.003 µM,8.8 nM
same,IC50,second compound 0.00949 µM,8.56 nM
same,IC50,second compound 0.03 µM,6.8 nM
same,IC50,second compound 0.0949 µM,7.28 nM
same,IC50,second compound 0.3 µM,5.8 nM
same,"viability, T/C","second compound 0.000949 µM, first compound 0.000949 µM",88.5%
same,"viability, T/C","second compound 0.000949 µM, first compound 0.003 µM",60.9%
same,"viability, T/C","second compound 0.000949 µM, first compound 0.00949 µM",50.1%
same,"viability, T/C","second compound 0.000949 µM, first compound 0.03 µM",39.2%
same,"viability, T/C","second compound 0.000949 µM, first compound 0.0949 µM",40.7%
same,"viability, T/C","second compound 0.000949 µM, first compound 0.3 µM",43%
same,"viability, T/C","second compound 0.003 µM, first compound 0.000949 µM",106%
same,"viability, T/C","second compound 0.003 µM, first compound 0.003 µM",65.2%
same,"viability, T/C","second compound 0.003 µM, first compound 0.00949 µM",49.9%
same,"viability, T/C","second compound 0.003 µM, first compound 0.03 µM",44%
same,"viability, T/C","second compound 0.003 µM, first compound 0.0949 µM",39.7%
same,"viability, T/C","second compound 0.003 µM, first compound 0.3 µM",45.7%
same,"viability, T/C","second compound 0.00949 µM, first compound 0.000949 µM",83.2%
same,"viability, T/C","second compound 0.00949 µM, first compound 0.003 µM",62.5%
same,"viability, T/C","second compound 0.00949 µM, first compound 0.00949 µM",52%
same,"viability, T/C","second compound 0.00949 µM, first compound 0.03 µM",36.2%
same,"viability, T/C","second compound 0.00949 µM, first compound 0.0949 µM",42.5%
same,"viability, T/C","second compound 0.00949 µM, first compound 0.3 µM",54.1%
same,"viability, T/C","second compound 0.03 µM, first compound 0.000949 µM",90.5%
same,"viability, T/C","second compound 0.03 µM, first compound 0.003 µM",68.7%
same,"viability, T/C","second compound 0.03 µM, first compound 0.00949 µM",40.9%
same,"viability, T/C","second compound 0.03 µM, first compound 0.03 µM",38.4%
same,"viability, T/C","second compound 0.03 µM, first compound 0.0949 µM",41.8%
same,"viability, T/C","second compound 0.03 µM, first compound 0.3 µM",48.4%
same,"viability, T/C","second compound 0.0949 µM, first compound 0.000949 µM",80.8%
same,"viability, T/C","second compound 0.0949 µM, first compound 0.003 µM",66.2%
same,"viability, T/C","second compound 0.0949 µM, first compound 0.00949 µM",45.4%
same,"viability, T/C","second compound 0.0949 µM, first compound 0.03 µM",38.9%
same,"viability, T/C","second compound 0.0949 µM, first compound 0.0949 µM",40%
same,"viability, T/C","second compound 0.0949 µM, first compound 0.3 µM",39%
same,"viability, T/C","second compound 0.3 µM, first compound 0.000949 µM",68.2%
same,"viability, T/C","second compound 0.3 µM, first compound 0.003 µM",65.1%
same,"viability, T/C","second compound 0.3 µM, first compound 0.00949 µM",38.7%
same,"viability, T/C","second compound 0.3 µM, first compound 0.03 µM",34.2%
same,"viability, T/C","second compound 0.3 µM, first compound 0.0949 µM",38.2%
same,"viability, T/C","second compound 0.3 µM, first compound 0.3 µM",40.1%
C[C@@H](NC(=O)c1ncnc(N)c1Cl)c1ncc(C(=O)Nc2cc(C(F)(F)F)c(Cl)cn2)s1 + C=CC(=O)N1CCN(c2nc(OCC3CCCN3C)nc3c(F)c(-c4nc(N)cc(C)c4C(F)(F)F)c(Cl)cc23)C(C)C1,IC50,second compound 0.00316 µM,> 10000 nM
same,IC50,second compound 0.01 µM,> 10000 nM
same,IC50,second compound 0.0316 µM,> 10000 nM
same,IC50,second compound 0.1 µM,> 10000 nM
same,IC50,second compound 0.316 µM,> 10000 nM
same,IC50,second compound 1 µM,6750 nM
same,"viability, T/C",[1],105%
same,"viability, T/C",[2],90.8%
same,"viability, T/C",[3],103%
same,"viability, T/C",[4],103%
same,"viability, T/C","second compound 0.00316 µM, first compound 3.16 µM",89.3%
same,"viability, T/C","second compound 0.00316 µM, first compound 10 µM",56.3%
same,"viability, T/C",[5],107%
same,"viability, T/C",[6],134%
same,"viability, T/C",[7],84.8%
same,"viability, T/C",[8],130%
same,"viability, T/C","second compound 0.01 µM, first compound 3.16 µM",82.9%
same,"viability, T/C","second compound 0.01 µM, first compound 10 µM",60.2%
same,"viability, T/C",[9],101%
same,"viability, T/C",[10],138%
same,"viability, T/C",[11],92.8%
same,"viability, T/C",[12],129%
same,"viability, T/C","second compound 0.0316 µM, first compound 3.16 µM",80.7%
same,"viability, T/C","second compound 0.0316 µM, first compound 10 µM",53.2%
same,"viability, T/C",[13],144%
same,"viability, T/C",[14],132%
same,"viability, T/C",[15],112%
same,"viability, T/C",[16],86.5%
same,"viability, T/C","second compound 0.1 µM, first compound 3.16 µM",73.1%
same,"viability, T/C","second compound 0.1 µM, first compound 10 µM",54.8%
same,"viability, T/C",[17],164%
same,"viability, T/C",[18],179%
same,"viability, T/C",[19],96%
same,"viability, T/C",[20],96.2%
same,"viability, T/C","second compound 0.316 µM, first compound 3.16 µM",79.5%
same,"viability, T/C","second compound 0.316 µM, first compound 10 µM",57.1%
same,"viability, T/C",[21],198%
same,"viability, T/C",[22],93.3%
same,"viability, T/C",[23],88.5%
same,"viability, T/C",[24],76.5%
same,"viability, T/C","second compound 1 µM, first compound 3.16 µM",74.2%
same,"viability, T/C","second compound 1 µM, first compound 10 µM",56.6%
